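All cell lines were grown in 96-well plates and treated with compound for 48 hours. Abbreviation: GI50, concentration required for 50% inhibition of growth. Definition used: TGI = concentration required for complete inhibition of growth.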
How the values were obtained:
Test in all cases: NCI-60 cell line screen, 48 h
[1] = tested on: 786-0 renal
[2] = tested on: COLO 205 colon
[3] = tested on: SNB-75 CNS
[4] = tested on: KM12 colon
[5] = tested on: SF-268 CNS
[6] = tested on: A549 NSCLC
[7] = tested on: MOLT-4 leukemia
[8] = tested on: EKVX NSCLC
[9] = tested on: DU-145 prostate
[10] = tested on: SW-620 colon
[11] = tested on: BT-549 breast
[12] = tested on: UO-31 renal
[13] = tested on: MCF7 breast
[14] = tested on: K-562 leukemia
[15] = tested on: UACC-62 melanoma
[16] = tested on: HCT-116 colon
[17] = tested on: HOP-62 NSCLC
[18] = tested on: NCI-H23 lung
[19] = tested on: OVCAR-3 ovarian
[20] = tested on: SF-539 CNS
[21] = tested on: HS 578T breast
[22] = tested on: RPMI-8226 leukemia
[23] = tested on: LOX IMVI melanoma
[24] = tested on: NCI/ADR-RES ovarian
[25] = tested on: NCI-H522 lung
[26] = tested on: SK-MEL-28 melanoma
[27] = tested on: ACHN renal
[28] = tested on: NCI-H226 lung
[29] = tested on: SK-MEL-2 melanoma
[30] = tested on: M14 melanoma
[31] = tested on: SR leukemia
[32] = tested on: NCI-H460 lung
[33] = tested on: MDA-MB-468 breast
[34] = tested on: SK-MEL-5 melanoma
[35] = tested on: PC-3 prostate
[36] = tested on: OVCAR-5 ovarian
[37] = tested on: SK-OV-3 ovarian
[38] = tested on: UACC-257 melanoma
[39] = tested on: IGROV1 ovarian
[40] = tested on: MDA-MB-231 breast
[41] = tested on: A498 renal
[42] = tested on: HCC-2998 colon
[43] = tested on: CAKI-1 renal
[44] = tested on: CCRF-CEM leukemia
[45] = tested on: U251 CNS
[46] = tested on: HCT-15 colon
[47] = tested on: OVCAR-8 ovarian
[48] = tested on: OVCAR-4 ovarian
[49] = tested on: SN12C renal
[50] = tested on: SF-295 CNS
[51] = tested on: HL-60(TB) leukemia
[52] = tested on: T-47D breast
[53] = tested on: SNB-19 CNS
[54] = tested on: MALME-3M melanoma
[55] = tested on: HT29 colon
[56] = tested on: MDA-MB-435
[57] = tested on: TK-10 renal
[58] = tested on: HOP-92 NSCLC

With `N/C(=N\c1nc2ccccc2s1)NC(=O)Nc1ccccc1Br` the GI50 [1] was 0.17 µM, the GI50 [2] was 0.0964 µM and the TGI [2] was 0.328 µM. For the same compound, the GI50 [3] was 0.0583 µM, the GI50 [4] was 0.125 µM and the GI50 [5] was 0.801 µM. The TGI [5] was greater than 35 µM, the GI50 [6] was 0.282 µM and the GI50 [7] was 0.165 µM. The TGI [7] was greater than 33.8 µM, the GI50 [8] was 0.183 µM and the TGI [8] was greater than 76.9 µM. The GI50 [9] was 0.14 µM, the GI50 [10] was 0.116 µM and the TGI [10] was greater than 38.1 µM. The GI50 [11] was 0.256 µM, the TGI [11] was 7.18 µM and the GI50 [12] was 0.184 µM. It also gave a TGI [12] greater than 37.2 µM, a GI50 [13] of 0.119 µM and a TGI [13] greater than 91.6 µM. For the same compound, the GI50 [14] was 0.0753 µM, the TGI [14] was greater than 100 µM and the GI50 [15] was 0.0882 µM. It also gave a TGI [15] greater than 35.1 µM, a GI50 [16] of 0.115 µM and a TGI [16] of 3.63 µM. For the same compound, the GI50 [17] was 0.145 µM, the TGI [17] was greater than 32 µM and the GI50 [18] was 0.146 µM. For the same compound, the TGI [18] was greater than 20.6 µM, the GI50 [19] was 0.102 µM and the TGI [19] was 1.34 µM. The GI50 [20] was 0.0693 µM, the TGI [20] was 0.195 µM and the GI50 [21] was 0.0798 µM. For the same compound, the TGI [21] was greater than 25.5 µM, the GI50 [22] was 0.149 µM and the GI50 [23] was 0.235 µM. For the same compound, the TGI [23] was 8.74 µM, the GI50 [24] was 0.0101 µM and the TGI [24] was 0.0406 µM. The GI50 [25] was less than 0.0485 µM, the TGI [25] was 0.169 µM and the GI50 [26] was 1.43 µM. The TGI [26] was greater than 100 µM, the GI50 [27] was 0.244 µM and the GI50 [28] was 0.723 µM. The TGI [28] was 8.73 µM, the GI50 [29] was 0.0399 µM and the TGI [29] was 10.8 µM. It also gave a GI50 [30] of 0.0768 µM, a TGI [31] greater than 41.8 µM and a GI50 [32] of 0.116 µM. The GI50 [33] was 0.419 µM, the TGI [33] was 1.66 µM and the GI50 [34] was 0.103 µM. The TGI [34] was 0.697 µM, the GI50 [35] was 0.162 µM and the TGI [35] was greater than 53.1 µM. For the same compound, the GI50 [36] was 0.22 µM, the GI50 [37] was 0.188 µM and the TGI [37] was greater than 32.2 µM. It also gave a TGI [38] greater than 100 µM, a GI50 [39] of 0.164 µM and a TGI [39] greater than 35 µM. The GI50 [40] was 0.148 µM, the TGI [40] was 1.43 µM and the GI50 [41] was greater than 38.2 µM. The TGI [41] was greater than 58.4 µM, the GI50 [42] was 0.192 µM and the TGI [42] was 3.39 µM. For the same compound, the GI50 [43] was 0.0925 µM, the GI50 [44] was 0.118 µM and the GI50 [45] was 0.116 µM. It also gave a GI50 [46] of 0.116 µM, a GI50 [47] of 0.148 µM and a GI50 [48] of 6.21 µM. The TGI [48] was greater than 23.5 µM, the GI50 [49] was 0.194 µM and the GI50 [50] was 0.104 µM. For the same compound, the TGI [50] was 3.86 µM, the GI50 [51] was 0.0893 µM and the GI50 [52] was 0.0513 µM. The TGI [52] was greater than 100 µM, the GI50 [53] was 0.178 µM and the TGI [53] was greater than 43.1 µM. It also gave a GI50 [54] of 0.151 µM, a TGI [54] greater than 25 µM and a GI50 [55] of 0.0921 µM. For the same compound, the TGI [55] was 0.286 µM, the GI50 [56] was less than 0.0372 µM and the TGI [56] was 0.0767 µM. The TGI [57] was greater than 28.4 µM and the TGI [58] was greater than 28.1 µM.

From PubChem BioAssay (NCI)
